The values below come from publication PMC5806375, “Characterization and expression analysis of a newly identified glutathione S-transferase of the hard tick Haemaphysalis longicornis during blood-feeding” (Parasites & Vectors, 2018).

In experiment [1] the target is T1, HlGST (recombinant HlGST, rHlGST) (Haemaphysalis longicornis, UniProt Q6JVN0).
T1 construct: gene GST
T1 sequence (Q6JVN0 1-223): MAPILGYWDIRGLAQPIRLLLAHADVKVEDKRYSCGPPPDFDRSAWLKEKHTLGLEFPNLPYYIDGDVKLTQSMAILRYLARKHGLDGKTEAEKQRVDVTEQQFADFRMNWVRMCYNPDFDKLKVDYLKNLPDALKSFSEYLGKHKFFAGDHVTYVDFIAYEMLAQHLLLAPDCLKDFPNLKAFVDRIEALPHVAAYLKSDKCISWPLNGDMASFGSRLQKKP
Description: absorbance at […] nm, Lineweaver-Burk plot. The experiment is classed as biochemical. Particulars: 5 mM GSH, CDNB 0.125-2 mM, 100 mM Tris-HCl pH 7.5, 25 °C, 5% methanol; read-out: CDNB kinetic constant^a.

The target in experiment [2] is T2, HlGST2 (recombinant HlGST2, rHlGST2) (Haemaphysalis longicornis, UniProt A0A2Z6FA39).
T2 construct: gene GST
T2 sequence (A0A2Z6FA39 1-230): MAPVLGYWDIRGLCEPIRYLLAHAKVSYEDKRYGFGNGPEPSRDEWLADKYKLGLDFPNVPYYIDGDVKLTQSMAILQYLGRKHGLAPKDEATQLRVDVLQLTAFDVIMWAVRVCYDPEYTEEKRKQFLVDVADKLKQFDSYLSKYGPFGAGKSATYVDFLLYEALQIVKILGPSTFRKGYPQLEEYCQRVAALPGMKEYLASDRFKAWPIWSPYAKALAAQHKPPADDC
The experiment is described as follows: absorbance at […] nm, Lineweaver-Burk plot. It counts as biochemical. The conditions noted are these: 5 mM GSH, CDNB 0.125-2 mM, 100 mM Tris-HCl pH 7.5, 25 °C, 5% methanol; read-out: CDNB kinetic constant^a.

For `O=[N+]([O-])c1ccc(Cl)c([N+](=O)[O-])c1` [CDNB, 1-chloro-2,4-dinitrobenzene], the Km stood at 820 ± 140 µM in experiment [1] and 610 ± 200 µM in experiment [2].
